Test results reported in article PMC6054100, “Exploring the chemical space of the lysine-binding pocket of the first kringle domain of hepatocyte growth factor/scatter factor (HGF/SF) yields a new class of inhibitors of HGF/SF-MET binding” (Chemical Science, 2015).

Legend:
[1] = molecular target: NK1 (Homo sapiens, UniProt P14210); test: 1H-15N TROSY-HSQC NMR chemical shift titration of 15N-labelled NK1; format: binding; design: made in house; host or cells: Pichia pastoris
Experimental: Ligand screening was performed by monitoring the chemical shift variations in ^1H-^15N TROSY-HSQC NMR spectra of the uniformly [^15N]-labelled NK1 protein (Fragai et al. 2015, in prep.) upon the addition of increasing concentrations of the investigated compounds.[43]–[45] The experiments were performed using 0.18 mM protein samples in 25 mM Tris, 100 mM NaCl and 0.01% sodium azide, at pH 7.2 with 10% D2O. The spectra were recorded at 310 K on a Bruker AVANCE 900 MHz spectrometer equipped with a TXI cryo-probe. Sample solutions were prepared from 1 M or 100 mM DMSO stock solutions of the ligands. The dissociation constant values (KD) were calculated by plotting the weighted average ^1H and ^15N chemical shifts of the residues experiencing significant variations as a function of ligand concentration added during the titration and considering the one site binding model.[46]

[2] = tested on: MET downstream signalling (Erk 1/2, Akt) in Vero cells; test: MET, Erk1/2 and Akt phosphorylation assay in NK1-stimulated Vero cells (Western blot); format: cell-based; settings: Vero cells stimulated with NK1; compound 1 mM (lane 5), 0.1% DMSO
Experimental: We evaluated the effect of piperazine-like compounds and MB605 on Vero cells by assessing MET, Erk 1/2 and Akt phosphorylation in response to stimulation using […] NK1. MB605 was dissolved in DMSO, which limited the range of concentrations tested to ≤1 mM in order to avoid solvent effects on cell function/viability. The water-soluble piperazine-like compounds, in contrast, could be tested at concentrations up to 100 mM.
Fig. 6 Biological activity of the piperazine-like compounds and MB605. (a–e) Vero cells expressing the receptor endogenously on their cell surface were stimulated with HGF/SF or NK1 and phosphorylation of MET and downstream targets Akt and Erk1/2 was analysed. Piperazine-like compounds HEPES (a), (H)EPPS (b), MES (c), MOPS (d) and CAPS (e) were tested at 100 mM (lanes 4), 10 mM (lanes 5), 1 mM (lanes 6) and 100 μM (lanes 7) concentration in the presence of 1 nM NK1. To control for activating or inhibiting effects of the compounds independently of MET, piperazine-like compounds were tested on cells at 100 mM without stimulation by NK1 (lanes 3). Biological activity of MB605 (f) was investigated at 1 mM (lane 5), 100 μM (lane 6) and 10 μM (lane 7) in the presence of a constant concentration of DMSO (0.1%). A solvent control (0.1% DMSO, lane 3) was included in order to account for the effect of DMSO on the cells. A positive control (1 nM NK1 in the presence of 0.1% DMSO) is shown in lane 4. In all experiments, un-stimulated cells served as negative control (lanes 1) while cells stimulated with 1 nM NK1 served as positive control (lanes 2).
The ability of MB605 and the piperazine-like compounds to inhibit MET, Erk and Akt phosphorylation in the presence of NK1 was tested using mammalian Vero cells as described by Ferraris et al.[47] and further details are given in the ESI ^† section of the manuscript. […]
For MET, Erk1/2 and Akt phosphorylation assays, Vero cells were seeded at 2.1 × 10^5 cells we ll -1 (2 ml we ll -1) in 6-well plates and grown to 90% conf luence in 10% FCS/DMEM media and then switched to serum-free medium (to avoid any growth f actors present in the serum).
24 hours post starvation the cells were stimulated for 5 min at 37°C with each individual piperazine -like compounds as well as with NK1 (1 nM) pre-incubated with different concentrations of the piperazine- like compounds (100 mM, 10 mM, 1 mM and 100 μM) or MB605 (1 mM, 100 μM and 10 μM). Stimulations with either 0. 1% DMS O or 1 nM of NK1 […]
solution were used as a negative and a positive control, respectively. The cells were then washed in PBS buffer, lysed on ice f or 30 min and frozen at -80 °C until further analysis. For

Sequence of NK1 (P14210 32-210 isoform P14210-6 limits assumed): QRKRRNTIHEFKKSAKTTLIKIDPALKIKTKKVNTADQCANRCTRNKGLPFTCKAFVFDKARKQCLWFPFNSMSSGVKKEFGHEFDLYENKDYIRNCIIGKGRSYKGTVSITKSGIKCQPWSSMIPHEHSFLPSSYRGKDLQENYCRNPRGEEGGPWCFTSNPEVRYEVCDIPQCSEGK

O=C(O)CCc1ccco1 [MB605]
variation in chemical shifts for NK1 residues ([1]; 1H-15N TROSY-HSQC, residues in and around the lysine-binding pocket): showed variation in chemical shifts
Kd ([1]; NMR chemical shift titration, read-out: KD): 110 µM
Activity on NK1-induced MET, Erk 1/2 and Akt phosphorylation [2]: active
